Test results from US20230212116A1, “SARS-COV-2 MAIN PROTEASE INHIBITORS” (TEXAS A&M UNIVERSITY SYSTEM, priority 2020, published 2023).

Molecular target: SARS-CoV-2 M^Pro (Severe acute respiratory syndrome coronavirus 2, UniProt P0DTD1)
Assay: biochemical
Type: biochemical
Settings: not given

Row | Structure (SMILES) | IC50 [µM]
1 | CC(C)C[C@H](NC(=O)OCc1ccccc1)C(=O)NN(CCC(N)=O)C(=O)OCC(F)(F)F [MPI46, 2,2,2-trifluoroethyl 1-(3-amino-3-oxopropyl)-2-(((benzyloxy)carbonyl)-L-leucyl)hydrazine-1-carboxylate] | > 10
2 | CC(C)C[C@H](NC(=O)OCc1ccccc1)C(=O)NN(CCC(N)=O)C(=O)Oc1ccc(F)cc1 [MPI47, 4-fluorophenyl 1-(3-amino-3-oxopropyl)-2-(((benzyloxy)carbonyl)-L-leucyl)hydrazine-1-carboxylate] | 1.04
3 | C=CC(=O)N(CCC(N)=O)NC(=O)[C@H](CC(C)C)NC(=O)[C@@H](NC(=O)OCc1ccccc1)[C@@H](C)OC(C)(C)C [MPI50, benzyl ((2S,3R)-1-(((S)-1-(2-acryloyl-2-(3-amino-3-oxopropyl)hydrazineyl)-4-methyl-1-oxopentan-2-yl)amino)-3-(tert-butoxy)-1-oxobutan-2-yl)carbamate] | 0.109
4 | CC1(C)[C@@H]2[C@@H](C(=O)N[C@H](C=O)C[C@@H]3CCNC3=O)N(C(=O)[C@H](Cc3ccccc3)NC(=O)OCc3ccccc3)C[C@@H]21 [MPI94, benzyl ((S)-1-((1R,2S,5S)-6,6-dimethyl-2-(((S)-1-oxo-3-((S)-2-oxopyrrolidin-3-yl)propan-2-yl)carbamoyl)-3-azabicyclo[3.1.0]hexan-3-yl)-1-oxo-3-phenylpropan-2-yl)carbamate] | 0.267 ± 0.044

Same assay, conditions: 20 nM enzyme (10 nM for MPI3), 10 μM substrate, 37° C., 30 min enzyme-inhibitor incubation

Row | Structure (SMILES) | Enzymatic IC50
5 | CC(C)[C@H](NC(=O)OCc1ccccc1)C(=O)N[C@@H](Cc1cccs1)C(=O)N[C@H](C=O)C[C@@H]1CCNC1=O [MPI13, Benzyl ((S)-3-methyl-1-oxo-1-(((S)-1-oxo-1-(((S)-1-oxo-3-((S)-2-oxopyrrolidin-3-yl)propan-2-yl)amino)-3-(thiophen-2-yl)propan-2-yl)amino)butan-2-yl)carbamate] | (insoluble)

Same assay, conditions: read-out: Enzymatic IC50

Row | Structure (SMILES) | IC50 [µM]
6 | C=CC(=O)N(Cc1cc(=O)[nH]c(=O)[nH]1)NC(=O)[C@H](CC(C)C)NC(=O)[C@@H](NC(=O)OCc1ccccc1)C(C)C [MPI35, benzyl ((S)-1-(((S)-1-(2-acryloyl-2-((2,6-dioxo-1,2,3,6-tetrahydropyrimidin-4-yl)methyl)hydrazineyl)-4-methyl-1-oxopentan-2-yl)amino)-3-methyl-1-oxobutan-2-yl)carbamate] | 4.28 ± 0.278
7 | CCC(=O)N(CCC(N)=O)NC(=O)[C@H](CC(C)C)NC(=O)OCc1ccccc1 [MPI36, benzyl (S)-(1-(2-(3-amino-3-oxopropyl)-2-propionylhydrazineyl)-4-methyl-1-oxopentan-2-yl)carbamate] | > 10
8 | CC(C)C[C@H](NC(=O)OCc1ccccc1)C(=O)NN(CCC(N)=O)C(=O)CCl [MPI37, benzyl (S)-(1-(2-(3-amino-3-oxopropyl)-2-(2-chloroacetyl)hydrazineyl)-4-methyl-1-oxopentan-2-yl)carbamate] | 0.064
9 | C=CC(=O)N(CCC(N)=O)NC(=O)[C@H](CC(C)C)NC(=O)OCc1ccccc1 [MPI38, benzyl (S)-(1-(2-acryloyl-2-(3-amino-3-oxopropyl)hydrazineyl)-4-methyl-1-oxopentan-2-yl)carbamate] | 0.64
10 | CC(C)C[C@H](NC(=O)OCc1ccccc1)C(=O)NN(CCC(N)=O)C(=O)[C@@H](C)Cl [MPI39, benzyl ((S)-1-(2-(3-amino-3-oxopropyl)-2-((R)-2-chloropropanoyl)hydrazineyl)-4-methyl-1-oxopentan-2-yl)carbamate] | 5.038 ± 0.013
11 | CC(C)C[C@H](NC(=O)OCc1ccccc1)C(=O)NN(CCC(N)=O)C(=O)[C@H](C)Cl [MPI40, benzyl ((S)-1-(2-(3-amino-3-oxopropyl)-2-((S)-2-chloropropanoyl)hydrazineyl)-4-methyl-1-oxopentan-2-yl)carbamate] | 1.62 ± 0.153
12 | CC(C)C[C@H](NC(=O)OCc1ccccc1)C(=O)NN(CCC(N)=O)C(=O)c1cc([N+](=O)[O-])ccc1F [MPI41, benzyl (S)-(1-(2-(3-amino-3-oxopropyl)-2-(2-fluoro-5-nitrobenzoyl)hydrazineyl)-4-methyl-1-oxopentan-2-yl)carbamate] | 39
13 | C=C(Cc1ccccc1)C(=O)N(CCC(N)=O)NC(=O)[C@H](CC(C)C)NC(=O)OCc1ccccc1 [MPI42, benzyl (S)-(1-(2-(3-amino-3-oxopropyl)-2-(2-benzylacryloyl)hydrazineyl)-4-methyl-1-oxopentan-2-yl)carbamate] | > 10
14 | CC(C)C[C@H](NC(=O)OCc1ccccc1)C(=O)NN(CCC(N)=O)C(=O)/C=C/CN(C)C [MPI43, benzyl (S,E)-(1-(2-(3-amino-3-oxopropyl)-2-(4-(dimethylamino)but-2-enoyl)hydrazineyl)-4-methyl-1-oxopentan-2-yl)carbamate] | > 10
15 | CC(C)C[C@H](NC(=O)OCc1ccccc1)C(=O)NN(CCC(N)=O)C(=O)COc1ccc([N+](=O)[O-])cc1 [MPI44, benzyl (S)-(1-(2-(3-amino-3-oxopropyl)-2-(2-(4-nitrophenoxy)acetyl)hydrazineyl)-4-methyl-1-oxopentan-2-yl)carbamate] | > 10
16 | CC(C)C[C@H](NC(=O)OCc1ccccc1)C(=O)NN(CCC(N)=O)C(=O)COc1ccc(F)cc1 [MPI45, benzyl (S)-(1-(2-(3-amino-3-oxopropyl)-2-(2-(4-fluorophenoxy)acetyl)hydrazineyl)-4-methyl-1-oxopentan-2-yl)carbamate] | > 10
17 | C=CC(=O)N(CCC(N)=O)NC(=O)[C@H](CC(C)C)NC(=O)[C@@H](NC(=O)OCc1ccccc1)C(C)C [MPI51, benzyl ((S)-1-(((S)-1-(2-acryloyl-2-(3-amino-3-oxopropyl)hydrazineyl)-4-methyl-1-oxopentan-2-yl)amino)-3-methyl-1-oxobutan-2-yl)carbamate] | 0.036
18 | C=CC(=O)N(CCC(N)=O)NC(=O)[C@H](CC1CCCCC1)NC(=O)[C@@H](NC(=O)OCc1ccccc1)[C@@H](C)OC(C)(C)C [MPI52, benzyl ((2S,3R)-1-(((S)-1-(2-acryloyl-2-(3-amino-3-oxopropyl)hydrazineyl)-3-cyclohexyl-1-oxopropan-2-yl)amino)-3-(tert-butoxy)-1-oxobutan-2-yl)carbamate] | 0.061 ± 0.0012
19 | C[C@@H](OC(C)(C)C)[C@H](NC(=O)OCc1ccccc1)C(=O)N[C@@H](CC1CCCCC1)C(=O)NN(CCC(N)=O)C(=O)CCl [MPI53, benzyl ((2S,3R)-1-(((S)-1-(2-(3-amino-3-oxopropyl)-2-(2-chloroacetyl)hydrazineyl)-3-cyclohexyl-1-oxopropan-2-yl)amino)-3-(tert-butoxy)-1-oxobutan-2-yl)carbamate] | 0.189
20 | CC(C)(C)NC(=O)N[C@H](C(=O)N1C[C@H]2[C@@H]([C@H]1C(=O)N[C@@H](C[C@@H]1CCNC1=O)C(=O)C(=O)NCc1ccccc1)C2(C)C)C(C)(C)C [MPI63, (1R,2S,5S)-N-((S)-4-(benzylamino)-3,4-dioxo-1-((S)-2-oxopyrrolidin-3-yl)butan-2-yl)-3-((S)-2-(3-(tert-butyl)ureido)-3,3-dimethylbutanoyl)-6,6-dimethyl-3-azabicyclo[3.1.0]hexane-2-carboxamide] | 0.103 ± 0.0015
21 | CC(C)[C@H](NC(=O)NC(C)(C)C)C(=O)N[C@@H](CC1CC1)C(=O)N[C@H](C=O)C[C@@H]1CCNC1=O [MPI64, (S)-2-(3-(tert-butyl)ureido)-N-((S)-3-cyclopropyl-1-oxo-1-(((S)-1-oxo-3-((S)-2-oxopyrrolidin-3-yl)propan-2-yl)amino)propan-2-yl)-3-methylbutanamide] | 0.0261 ± 0.0014
22 | C[C@@H](OC(C)(C)C)[C@H](NC(=O)OCc1ccccc1)C(=O)N[C@@H](CC1CCCCC1)C(=O)N[C@@H](C[C@@H]1CCNC1=O)C(O)S(=O)(=O)O (stereo partly drawn) [MPI65, sodium (5S,8S,11S)-5-((R)-1-(tert-butoxy)ethyl)-8-(cyclohexylmethyl)-12-hydroxy-3,6,9-trioxo-11-(((S)-2-oxopyrrolidin-3-yl)methyl)-1-phenyl-2-oxa-4,7,10-triazadodecane-12-sulfonate] | 0.294 ± 0.015
23 | CC(C)C[C@H](NC(=O)[C@@H](NC(=O)OCc1ccccc1)C(C)C)C(=O)N[C@@H](C[C@@H]1CCNC1=O)C(O)C#N (stereo partly drawn) [MPI66, benzyl ((2S)-1-(((2S)-1-(((2S)-1-cyano-1-hydroxy-3-((S)-2-oxopyrrolidin-3-yl)propan-2-yl)amino)-4-methyl-1-oxopentan-2-yl)amino)-3-methyl-1-oxobutan-2-yl)carbamate] | 0.0188 ± 0.0008
24 | C[C@@H](OC(C)(C)C)[C@H](NC(=O)NC(C)(C)C)C(=O)N1C[C@H]2[C@@H]([C@H]1C(=O)N[C@H](C=O)C[C@@H]1CCNC1=O)C2(C)C [MPI68, (1R,2S,5S)-3-(O-(tert-butyl)-N-(tert-butylcarbamoyl)-L-threonyl)-6,6-dimethyl-N-((S)-1-oxo-3-((S)-2-oxopyrrolidin-3-yl)propan-2-yl)-3-azabicyclo[3.1.0]hexane-2-carboxamide] | 0.097
25 | C=CC(=O)N(C[C@@H]1CCC(=O)N1)NC(=O)[C@@H]1[C@@H]2[C@H](CN1C(=O)[C@@H](NC(=O)NC(C)(C)C)[C@@H](C)OC(C)(C)C)C2(C)C [MPI69, 1-((2S,3R)-1-((1R,2S,5S)-2-(2-acryloyl-2-(((S)-5-oxopyrrolidin-2-yl)methyl)hydrazine-1-carbonyl)-6,6-dimethyl-3-azabicyclo[3.1.0]hexan-3-yl)-3-(tert-butoxy)-1-oxobutan-2-yl)-3-(tert-butyl)urea] | > 2
26 | C=CC(=O)N(CCC(N)=O)NC(=O)[C@@H]1[C@@H]2[C@H](CN1C(=O)[C@@H](NC(=O)NC(C)(C)C)[C@@H](C)OC(C)(C)C)C2(C)C [MPI70, 3-(1-acryloyl-2-((1R,2S,5S)-3-(O-(tert-butyl)-N-(tert-butylcarbamoyl)-L-threonyl)-6,6-dimethyl-3-azabicyclo[3.1.0]hexane-2-carbonyl)hydrazineyl)propanamide] | 0.136 ± 0.017
27 | C[C@@H](OC(C)(C)C)[C@H](NC(=O)OCc1ccccc1)C(=O)N[C@@H](CC1CCCCC1)C(=O)N[C@@H](C[C@@H]1CCNC1=O)C(=O)C(N)=O [MPI86, benzyl ((2S,3R)-1-(((S)-1-(((S)-4-amino-3,4-dioxo-1-((S)-2-oxopyrrolidin-3-yl)butan-2-yl)amino)-3-cyclohexyl-1-oxopropan-2-yl)amino)-3-(tert-butoxy)-1-oxobutan-2-yl)carbamate] | 0.167 ± 0.014
